From ChEMBL document CHEMBL2384955, “Structure-activity relationships in aminosterol antibiotics: the effect of stereochemistry at the 7-OH group” (2013)
Calls of active or inactive are those of the source. The rule behind the calls is not given here.

Assays:
Lipid bilayer [1] = experiment: Binding affinity to zwitterionic DOPC large unilamellar vesicle assessed as release of calcein at 1 mg/mL measured for 1 min by spectrophotometric analysis relative to control
Staphylococcus aureus = experiment: Antibacterial activity against Staphylococcus aureus ATCC 29213 assessed as cell viability after 24 hrs by resazurin-based microplate assay; type: functional; conditions: ATCC 29213, 24 h
Lipid bilayer [2] = experiment: Binding affinity to DOPG large unilamellar vesicle assessed as release of calcein at 1 mg/mL measured for 1 min by spectrophotometric analysis
Pseudomonas aeruginosa = experiment: Antibacterial activity against Pseudomonas aeruginosa ATCC 27853 assessed as growth inhibition assessed as cell viability after 24 hrs by resazurin-based microplate assay; type: functional; conditions: ATCC 27853, 24 h
Enterococcus faecalis = experiment: Antibacterial activity against Enterococcus faecalis ATCC 29212 assessed as growth inhibition assessed as cell viability after 24 hrs by resazurin-based microplate assay; type: functional; conditions: ATCC 29212, 24 h
Escherichia coli = experiment: Antibacterial activity against Escherichia coli ATCC 25922 assessed as growth inhibition assessed as cell viability after 24 hrs by resazurin-based microplate assay; type: functional; conditions: ATCC 25922, 24 h
Lipid bilayer [3] = experiment: Binding affinity to DOPC/DOPG large unilamellar vesicle assessed as release of calcein at 1 mg/mL measured for 1 min by spectrophotometric analysis

Activity (Lipid bilayer [1]) | MIC (Staphylococcus aureus) | Activity (Lipid bilayer [2]) | MIC (Pseudomonas aeruginosa) | MIC (Enterococcus faecalis) | MIC (Escherichia coli) | Activity (Lipid bilayer [3]) | SMILES
inactive | 12 µg/mL | inactive | 24 µg/mL | 12 µg/mL | 12 µg/mL | inactive | CC(C)[C@@H](CC[C@@H](C)[C@H]1CC[C@H]2[C@@H]3[C@@H](O)C[C@H]4C[C@@H](NCCCNCCCCN)CC[C@]4(C)[C@H]3CC[C@]12C)OS(=O)(=O)O.O=C(O)C(F)(F)F
50% | 4 µg/mL | Active | 8 µg/mL | 32 µg/mL | 2 µg/mL | Active | CC(C)[C@@H](CC[C@@H](C)[C@H]1CC[C@H]2[C@@H]3[C@H](O)C[C@H]4C[C@@H](NCCCNCCCCNCCCN)CC[C@]4(C)[C@H]3CC[C@]12C)OS(=O)(=O)O.Cl
50% | 2 µg/mL | Active | 4 µg/mL | 2 µg/mL | 8 µg/mL | Active | CC(C)[C@@H](CC[C@@H](C)[C@H]1CC[C@H]2[C@@H]3[C@H](O)C[C@H]4C[C@@H](NCCCNCCCCN)CC[C@]4(C)[C@H]3CC[C@]12C)OS(=O)(=O)O.CC(O)C(=O)O
50% | 8 µg/mL | Active | 32 µg/mL | 16 µg/mL | 1 µg/mL | inactive | CC(C)[C@@H](CC[C@@H](C)[C@H]1CC[C@H]2[C@@H]3[C@@H](O)C[C@H]4C[C@@H](NCCCNCCCCNCCCN)CC[C@]4(C)[C@H]3CC[C@]12C)OS(=O)(=O)O.O=C(O)C(F)(F)F
